pEC50: −log10 of the molar value.

For the test, the system named is T-24. The experiment in a line: Antiproliferative activity against human T24 cells. The format is functional. To be noted: read-out: ED50 (the source's name).

`O[C@@H]1[C@@H](O)[C@H](Oc2cccc3c(O[C@@H]4OC[C@@H](O)[C@H](O)[C@H]4O)cccc23)OC[C@H]1O`: the pEC50 was 3.40.
Consider `O[C@@H]1[C@@H](O)[C@H](Oc2cc(O[C@@H]3OC[C@@H](O)[C@H](O)[C@H]3O)c3ccccc3c2)OC[C@H]1O`, for which the pEC50 was less than 3.40.
Regarding `O[C@@H]1[C@@H](O)[C@H](Oc2ccc3cc(O[C@@H]4OC[C@@H](O)[C@H](O)[C@H]4O)ccc3c2)OC[C@H]1O`, the pEC50 is less than 3.40.
For the compound `O[C@@H]1[C@@H](Oc2ccc3ccc(O[C@@H]4OC[C@@H](O)[C@H](O)[C@H]4O)cc3c2)OC[C@H](O)[C@H]1O`, the pEC50 is 3.35.
On to `O[C@@H]1[C@@H](O)[C@H](Oc2ccc(O[C@@H]3OC[C@@H](O)[C@H](O)[C@H]3O)c3ccccc23)OC[C@H]1O`, for which the pEC50 is 3.40.

The record behind these values is ChEMBL document CHEMBL1147852, “Synthesis and biology of bis-xylosylated dihydroxynaphthalenes” (2007).
